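Briefly, cells in 96-well plates were exposed to five compound concentrations for 48 h, and endpoints were estimated by linear interpolation. Here, GI50 denotes the concentration required for 50% inhibition of growth.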 The source made the active and inactive calls. Rule as the data show it: active = GI50 up to about 1.1 µM and inactive = higher.
Experiments:
Experiment in all cases: NCI tumour cell line growth inhibition, 48 h
MCF7 = test system: MCF7
CCRF-CEM = test system: CCRF-CEM
OVCAR-5 = test system: OVCAR-5
BT-549 = test system: BT-549
Malme-3M = test system: Malme-3M
SNB-19 = test system: SNB-19
SW-620 = test system: SW-620
U-251 = test system: U-251
NCI-H460 = test system: NCI-H460
HOP-92 = test system: HOP-92
EKVX = test system: EKVX
HCT-116 = test system: HCT-116
LOX IMVI = test system: LOX IMVI
NCI-H226 = test system: NCI-H226
COLO 205 = test system: COLO 205
KM12 = test system: KM12
RPMI-8226 = test system: RPMI-8226
SF-539 = test system: SF-539
OVCAR-4 = test system: OVCAR-4
SK-MEL-2 = test system: SK-MEL-2
PC-3 = test system: PC-3
SK-MEL-5 = test system: SK-MEL-5
SNB-75 = test system: SNB-75
OVCAR-8 = test system: OVCAR-8
K562 = test system: K562
UACC-62 = test system: UACC-62
MDA-MB-435 = test system: MDA-MB-435
M14 = test system: M14
SF-268 = test system: SF-268
UO-31 = test system: UO-31
UACC-257 = test system: UACC-257
SF-295 = test system: SF-295
Hs-578T = test system: Hs-578T
HCT-15 = test system: HCT-15
HL-60 = test system: HL-60
CAKI-1 = test system: CAKI-1
SR = test system: SR
SK-OV-3 = test system: SK-OV-3
786-0 = test system: 786-0
MDA-MB-231 = test system: MDA-MB-231
OVCAR-3 = test system: OVCAR-3
TK-10 = test system: TK-10
SN12C = test system: SN12C
SK-MEL-28 = test system: SK-MEL-28
HOP-62 = test system: HOP-62
MOLT-4 = test system: MOLT-4
ACHN = test system: ACHN
IGROV-1 = test system: IGROV-1
A549 = test system: A549
NCI-H23 = test system: NCI-H23
NCI-H522 = test system: NCI-H522
NCI/ADR-RES = test system: NCI/ADR-RES
A498 = test system: A498
MDA-N = test system: MDA-N
HT-29 = test system: HT-29
RXF 393 = test system: RXF 393
DU-145 = test system: DU-145
T47D = test system: T47D
HCC 2998 = test system: HCC 2998

Oc1cc(Br)cc2cc(Cl)cnc12
GI50 (MCF7): 3330 nM (inactive) | GI50 (CCRF-CEM): 1530 nM (inactive) | GI50 (OVCAR-5): 18700 nM (inactive) | GI50 (BT-549): 2440 nM (inactive) | GI50 (Malme-3M): 2520 nM (inactive) | GI50 (SNB-19): 3110 nM (inactive) | GI50 (SW-620): 2830 nM (inactive) | GI50 (U-251): 1560 nM (inactive) | GI50 (NCI-H460): 1090 nM (active) | GI50 (HOP-92): 23400 nM (inactive) | GI50 (EKVX): 3990 nM (inactive) | GI50 (HCT-116): 1660 nM (inactive) | GI50 (LOX IMVI): 635 nM (active) | GI50 (NCI-H226): 16300 nM (inactive) | GI50 (COLO 205): 21400 nM (inactive) | GI50 (KM12): 4060 nM (inactive) | GI50 (RPMI-8226): 2540 nM (inactive) | GI50 (SF-539): 3190 nM (inactive) | GI50 (OVCAR-4): 1000 nM (active) | GI50 (SK-MEL-2): 22300 nM (inactive) | GI50 (PC-3): 3590 nM (inactive) | GI50 (SK-MEL-5): 1710 nM (inactive) | GI50 (SNB-75): 8200 nM (inactive) | GI50 (OVCAR-8): 2450 nM (inactive) | GI50 (K562): 627 nM (active) | GI50 (UACC-62): 2080 nM (inactive) | GI50 (MDA-MB-435): 3300 nM (inactive) | GI50 (M14): 1350 nM (inactive) | GI50 (SF-268): 893 nM (active) | GI50 (UO-31): 1480 nM (inactive) | GI50 (UACC-257): 3270 nM (inactive) | GI50 (SF-295): 2080 nM (inactive) | GI50 (Hs-578T): 845 nM (active) | GI50 (HCT-15): 665 nM | GI50 (HL-60): 463 nM (active) | GI50 (CAKI-1): 7550 nM (inactive) | GI50 (SR): 1110 nM (active) | GI50 (SK-OV-3): 30200 nM (inactive) | GI50 (786-0): 8710 nM (inactive) | GI50 (MDA-MB-231): 20800 nM (inactive) | GI50 (OVCAR-3): 1950 nM (inactive) | GI50 (TK-10): 28500 nM (inactive) | GI50 (SN12C): 3130 nM (inactive) | GI50 (SK-MEL-28): 3290 nM (inactive) | GI50 (HOP-62): 4840 nM (inactive) | GI50 (MOLT-4): 1550 nM (inactive) | GI50 (ACHN): 1950 nM (inactive) | GI50 (IGROV-1): 1260 nM (inactive) | GI50 (A549): 2060 nM (inactive) | GI50 (NCI-H23): 5470 nM (inactive) | GI50 (NCI-H522): 2350 nM (inactive) | GI50 (NCI/ADR-RES): 1210 nM (inactive) | GI50 (A498): 8260 nM (inactive) | GI50 (MDA-N): 3450 nM (inactive) | GI50 (HT-29): 11000 nM (inactive) | GI50 (RXF 393): 1950 nM (inactive) | GI50 (DU-145): 4560 nM (inactive) | GI50 (T47D): 3210 nM (inactive) | GI50 (HCC 2998): 17800 nM (inactive)

COc1cc2c(SCCN(C)C)nc3ccccc3c2c2ccccc12
GI50 (MCF7): 1660 nM (inactive) | GI50 (CCRF-CEM): 281 nM (active) | GI50 (OVCAR-5): 1640 nM (inactive) | GI50 (BT-549): 5700 nM (inactive) | GI50 (Malme-3M): 1820 nM (inactive) | GI50 (SNB-19): 2450 nM (inactive) | GI50 (SW-620): 1740 nM (inactive) | GI50 (U-251): 1870 nM (inactive) | GI50 (NCI-H460): 1680 nM (inactive) | GI50 (HOP-92): 1730 nM (inactive) | GI50 (EKVX): 1670 nM (inactive) | GI50 (HCT-116): 1670 nM (inactive) | GI50 (LOX IMVI): 1690 nM (inactive) | GI50 (NCI-H226): 1940 nM (inactive) | GI50 (COLO 205): 1680 nM (inactive) | GI50 (KM12): 1560 nM (inactive) | GI50 (RPMI-8226): 1760 nM (inactive) | GI50 (SF-539): 1740 nM (inactive) | GI50 (OVCAR-4): 2620 nM (inactive) | GI50 (SK-MEL-2): 1870 nM (inactive) | GI50 (PC-3): 2220 nM (inactive) | GI50 (SK-MEL-5): 1830 nM (inactive) | GI50 (SNB-75): 2510 nM (inactive) | GI50 (OVCAR-8): 2140 nM (inactive) | GI50 (K562): 1720 nM (inactive) | GI50 (UACC-62): 1630 nM (inactive) | GI50 (MDA-MB-435): 1960 nM (inactive) | GI50 (M14): 1680 nM (inactive) | GI50 (SF-268): 2040 nM (inactive) | GI50 (UO-31): 2260 nM (inactive) | GI50 (UACC-257): 1770 nM (inactive) | GI50 (SF-295): 1770 nM (inactive) | GI50 (Hs-578T): 2130 nM (inactive) | GI50 (HCT-15): 1610 nM | GI50 (HL-60): 193 nM (active) | GI50 (CAKI-1): 1880 nM (inactive) | GI50 (SR): 1700 nM (inactive) | GI50 (SK-OV-3): 10400 nM (inactive) | GI50 (786-0): 1930 nM (inactive) | GI50 (MDA-MB-231): 2250 nM (inactive) | GI50 (OVCAR-3): 2340 nM (inactive) | GI50 (TK-10): 2700 nM (inactive) | GI50 (SN12C): 2520 nM (inactive) | GI50 (SK-MEL-28): 1780 nM (inactive) | GI50 (HOP-62): 1790 nM (inactive) | GI50 (MOLT-4): 1540 nM (inactive) | GI50 (ACHN): 1780 nM (inactive) | GI50 (IGROV-1): 1300 nM (inactive) | GI50 (A549): 1770 nM (inactive) | GI50 (NCI-H23): 5460 nM (inactive) | GI50 (NCI-H522): 1680 nM (inactive) | GI50 (NCI/ADR-RES): 5380 nM (inactive) | GI50 (A498): 10700 nM (inactive) | GI50 (MDA-N): 2190 nM (inactive) | GI50 (HT-29): 2640 nM (inactive) | GI50 (RXF 393): 1930 nM (inactive) | GI50 (DU-145): 3710 nM (inactive) | GI50 (T47D): 2700 nM (inactive) | GI50 (HCC 2998): 1470 nM (inactive)
